Measured values as given in PubChem BioAssay (NCI).
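Tested at 5 concentrations; 48 h exposure; 96-well plates; endpoints linearly interpolated, else capped at highest concentration. Abbreviation: GI50, concentration required for 50% inhibition of growth. TGI: total growth inhibition.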

Tests used:
Test in all cases: NCI anticancer screen, dose series, 48 h
MDA-MB-231 breast = tested on: MDA-MB-231 breast
SF-268 CNS = tested on: SF-268 CNS
HCC-2998 colon = tested on: HCC-2998 colon
UACC-257 melanoma = tested on: UACC-257 melanoma
SNB-19 CNS = tested on: SNB-19 CNS
A498 renal = tested on: A498 renal
RPMI-8226 leukemia = tested on: RPMI-8226 leukemia
KM12 colon = tested on: KM12 colon
OVCAR-8 ovarian = tested on: OVCAR-8 ovarian
MOLT-4 leukemia = tested on: MOLT-4 leukemia

SMILES | GI50 (MDA-MB-231 breast) | TGI (MDA-MB-231 breast) | GI50 (SF-268 CNS) | TGI (SF-268 CNS) | GI50 (HCC-2998 colon) | TGI (HCC-2998 colon) | GI50 (UACC-257 melanoma) | TGI (UACC-257 melanoma) | GI50 (SNB-19 CNS) | TGI (SNB-19 CNS) | GI50 (A498 renal) | TGI (A498 renal) | GI50 (RPMI-8226 leukemia) | TGI (RPMI-8226 leukemia) | GI50 (KM12 colon) | TGI (KM12 colon) | GI50 (OVCAR-8 ovarian) | TGI (OVCAR-8 ovarian) | GI50 (MOLT-4 leukemia) | TGI (MOLT-4 leukemia)
C[C@]12CC[C@@H]3c4ccc(O)cc4CC[C@H]3[C@@H]1CC[C@@H]2NS(=O)(=O)c1ccc(C(F)(F)F)cc1 | 1.74 µM | 3.31 µM | 3.1 µM | 11.8 µM | 2.11 µM | 4.37 µM | 2.59 µM | 7.57 µM | 3.28 µM | 11.6 µM | 1.25 µM | 2.74 µM | 2.51 µM | 6.79 µM | 1.87 µM | 3.57 µM | 2.54 µM | 6.95 µM | 2.61 µM | 12.7 µM
O=C(CCCSc1nc(-c2ccc(Cl)cc2)cc(-c2ccc(Cl)cc2)n1)NO | 1.71 µM | 13.2 µM | 1.21 µM | 7.72 µM | 2.78 µM | 10.3 µM | 2.92 µM | 18.2 µM | 1.92 µM | 13.2 µM | 1.41 µM | 4.26 µM | 1.38 µM | 36.7 µM | 1.96 µM | 11.3 µM | 0.558 µM | 28.6 µM | 0.76 µM | > 100 µM
